From patent US12227536B2, “Crystalline forms of an NRTTI compound” (Merck Sharp & Dohme LLC, priority 2018, dated 2025)

Tests used:
[1] = tested on: lymphoid derived cell lines and peripheral blood mononuclear cells; settings: in vitro; cited from earlier work
[2] = Solubility of EFdA Forms 1, 2 and 4 in acetonitrile as a function of temperature; assay type: physicochemical; settings: for Solubility / Solubility Ratio (Form 1/4): acetonitrile; for Form 1 and Form 4 ΔΔG: calculated; for Relative thermodynamic stability of the phase: from solubility in acetonitrile between 25.0 and 65.0 °C
Protocol: The Gibbs free energy (ΔG) of a phase is the fundamental thermodynamic parameter that determines the relative stability of a polymorphs at a given temperature. The solubility of a particular polymorph is related to the ΔG by the equation ΔG=−RTln (solubility). The polymorph with the lowest solubility is considered to be the thermodynamically stable phase at a given temperature. Table 6 lists the measured solubility for Forms 1, 2 and 4 of EFdA in acetonitrile between 25.0 and 65.0° C. […] The relatively low ΔΔG values for conversion of Form 1 to Form 4 (i.e., the energy gap between Form 1 and Form 4 is small; 0.21-0.35 kJ/mol), combined with the fast crystallization kinetics of Form 1 as compared to Form 4, result in difficulties isolating Form 4 using conventional methods of polymorph screening.

[3] = Critical water activity from solubility in acetonitrile as a function of water content; assay type: physicochemical; settings: 25 °C
Protocol: The thermodynamic parameter for the stability of the monohydrate Form MH and anhydrate Form 4 of EFdA is the critical water activity. Below this water activity, anhydrous Form 4 is thermodynamically preferred. Above this water activity, monohydrate Form MH is thermodynamically preferred. The solubility of EFdA monohydrate Form MH and anhydrate Forms 1 and 4 were determined in acetonitrile as a function of water content at 25.0° C. The critical water activity for the EFdA monohydrate/Form 4 system at 25° C. was determined to be 0.3.

[4] = Crystal form stability in hot melt extrusion (HME) of EFdA/EVA implant product, by XRD; assay type: physicochemical
Protocol: Anhydrate crystalline Forms 1, 2, and 4 of EFdA were isolated by hot melt extrusion (HME) processing. Micronized ethylene vinyl acetate (EVA) polymer and monohydrate crystalline Form MH of EFdA were blended with a Turbula T2F mixer at various ratios: 30, 35, 40, 45 and 50 wt % drug. The pre-blend was hot melt extruded with an 18 mm Leistritz twin screw extruder with a 25:1 L/D, throughput of 400 g/hr, temperatures ranging from 100-140° C., feed zone at 40° C., and screw speed at 30 rpm. Two screw configurations were used, both predominately consisting of conveying elements with different mixing sections. The less aggressive screw design contained a mixing section consisting of conveying, kneading elements each 15 mm in length, with twisting angles of 30°, 60°, and 60° (“HME low shear Process A”). The more aggressive screw design included additional mixing segments after the mixing section used in the less aggressive design: conveying, kneading elements each 15 mm in length, with a twisting angle of 90° (“HME high shear Process B”). For both extrusion set-ups, the strands were then air-cooled and pelletized to form micropellets. The pellets were then extruded with a ½″ American Kuhne single screw extruder with temperatures ranging from 110-140° C., feed zone at 25° C., and screw speed at 20-25 rpm to form a 2±0.05 mm diameter filament, and then cut to a length of 40±2 mm. […]

For `C#C[C@]1(COP(=O)(O)OP(=O)(O)OP(=O)(O)O)O[C@@H](n2cnc3c(N)nc(F)nc32)C[C@@H]1O` [EFdA-TP], the Intracellular half-life [1] is listed as “exceeds 72 hrs”.
For `C#C[C@]1(CO)O[C@@H](n2cnc3c(N)nc(F)nc32)C[C@@H]1O` [Form 1, 4′-Ethynyl-2-fluoro-2′-deoxyadenosine], the Solubility ([2]; 25.0 °C) was 2.15 ± 0.02 mg/g solv, the “Solubility Ratio (Form 1/4)” value ([2]; 25.0 °C) was 1.15 and the Solubility ([2]; 35.0 °C) was 2.43 ± 0.01 mg/g solv. For the same compound, the “Solubility Ratio (Form 1/4)” value ([2]; 35.0 °C) was 1.13, the Solubility ([2]; 45.0 °C) was 3.44 ± 0.02 mg/g solv and the “Solubility Ratio (Form 1/4)” value ([2]; 45.0 °C) was 1.08. For the same compound, the Solubility ([2]; 55.0 °C) was 4.74 ± 0.02 mg/g solv, the “Solubility Ratio (Form 1/4)” value ([2]; 55.0 °C) was 1.12 and the Solubility ([2]; 65.0 °C) was 6.81 ± 0.03 mg/g solv. For the same compound, the “Solubility Ratio (Form 1/4)” value ([2]; 65.0 °C) was 1.13, the “ΔΔG for conversion of Form 1 to Form 4 (energy gap)” value ([2]; between 25.0 and 65.0 °C) was 0.0502 to 0.0837 kcal/mol and the “Form 1 and Form 4 ΔΔG” value ([2]; 25.0 °C) was 0.0837 kcal/mol. For the same compound, the “Form 1 and Form 4 ΔΔG” value ([2]; 35.0 °C) was 0.0789 kcal/mol, the “Form 1 and Form 4 ΔΔG” value ([2]; 45.0 °C) was 0.0502 kcal/mol and the “Form 1 and Form 4 ΔΔG” value ([2]; 55.0 °C) was 0.0717 kcal/mol. For the same compound, the “Form 1 and Form 4 ΔΔG” value ([2]; 65.0 °C) was 0.0789 kcal/mol.
In the case of `C#C[C@]1(CO)O[C@@H](n2cnc3c(N)nc(F)nc32)C[C@@H]1O` [Form 2, 4′-Ethynyl-2-fluoro-2′-deoxyadenosine], the Solubility ([2]; 25.0 °C) is reported as 2.43 ± 0.01 mg/g solv, the Solubility ([2]; 35.0 °C) is reported as 3.20 ± 0.03 mg/g solv and the Solubility ([2]; 45.0 °C) is reported as 4.39 ± 0.04 mg/g solv. The Solubility ([2]; 55.0 °C) was 5.79 ± 0.09 mg/g solv, the Solubility ([2]; 65.0 °C) was 7.72 ± 0.12 mg/g solv and the “Relative thermodynamic stability of the phase” value [2] was “least stable phase”.
`C#C[C@]1(CO)O[C@@H](n2cnc3c(N)nc(F)nc32)C[C@@H]1O` [Form 4, 4′-Ethynyl-2-fluoro-2′-deoxyadenosine] gave a Solubility ([2]; 25.0 °C) of 1.87 ± 0.02 mg/g solv, a Solubility ([2]; 35.0 °C) of 2.14 ± 0.02 mg/g solv and a Solubility ([2]; 45.0 °C) of 3.18 ± 0.01 mg/g solv. For the same compound, the Solubility ([2]; 55.0 °C) was 4.24 ± 0.01 mg/g solv, the Solubility ([2]; 65.0 °C) was 6.05 ± 0.05 mg/g solv and the “Relative thermodynamic stability of the phase” value [2] was “most thermodynamically stable phase”. For the same compound, the “Critical water activity, EFdA monohydrate/Form 4 system” value [3] was 0.3.
For `C#C[C@]1(CO)O[C@@H](n2cnc3c(N)nc(F)nc32)C[C@@H]1O` [Form MH, 4′-Ethynyl-2-fluoro-2′-deoxyadenosine], the “Crystal form after HME processing” value ([4]; HME high shear Process B) was “converted the Form MH phase into anhydrate Form 4” and the “Crystal form after HME processing” value ([4]; HME low shear Process A) was “converted the Form MH phase into anhydrate Form 1 and anhydrate Form 2”.
